We go through six compounds from patent US20260245655A1, “METHODS FOR DETERMINING DRUG CANDIDATES” (MOSAIQUES DIAGNOSTICS AND THERAPEUTICS AG, priority 2023, published 2026).

The structures appear in SMILES notation. “Also recorded” adds a separate entry of the source.

Assay [1] deals with BC cell lines: non-muscle invasive (RT112) and muscle invasive (T24, BFTC905, HT1376) cells. Description: in vitro screening of drug candidates on growth/proliferation of BC cell lines. Conditions: for proliferation rate of the BC cells (dose response curves): FIG. 2; for cell growth of BC cells: in vitro, panel of BC cell lines RT112, T24, BFTC905, HT1376. It counts as cell-based. The method, then: The impact of the drug candidates onto the malignant phenotype of BC cells was assessed in vitro in a panel of multi-origin BC cell lines representing different stages during disease progression. These included non-muscle invasive (RT112) and muscle invasive (T24, BFTC905, HT1376) cells.
Accordingly, these compounds were selected for further investigation, here providing the response curves for four different BC cell lines. Representative response curves of the seven compounds are presented in FIG. 2, along with the respective IC50s. A clear impact was observed on the proliferation of the BC cells for all seven compounds.
FIG. 2. The dose response curves of cephaeline (i-ii), exemestane (iii-iv) and 1,4 chrysenequinone (v-vi) in the BC cell lines RT112, T24, HT1376 and BFTC905. The dose response curves of fluvoxamine (vii), amiodarone (viii), isradipine (ix) and amodiaquine (x) in the RT112 cells are also provided.

Assay [2] relates to BFTC905 xenograft. Description: BFTC905 xenograft mouse model. As to conditions: start three days after cell injection, observed at least 17 days, vs DMSO control. It counts as in vivo, NOD/SCID male mice. As for the experimental part: In vivo testing of exemestane, cephaeline and 1,4 chrysenequinone was performed in xenograft mouse models. Particularly, the model was established after injecting […] BFTC905 cells subcutaneously into the tail base of NOD/SCID male mice. Male mice were selected for these experiments since males are more prone to develop BC. The treatments started three days after the injections of the cancer cells. The treatment scheme was 30 mg/kg/every 3rd day for exemestane, 5 mg/kg/daily for cephaeline and 5 mg/kg/daily for 1,4 chrysenequinone. As controls were used animals injected with DMSO diluted in PBS (at a final concentration similar to the one of the compounds).
FIG. 3. The impact of cephaeline, exemestane and 1,4 chrysenequinone in vivo in BFTC905 xenograft mouse models.

[3] abbreviates: BC cell lines RT112, T24, HT1376 and BFTC905.

With `O=C1C=CC(=O)c2c1ccc1c2ccc2ccccc21` [1,4-chrysenequinone], the “proliferation rate of the BC cells (dose response curves)” value (from here on “proliferation rate of the BC cells”) in assay [1] (setting [3]) is “significantly decreased the proliferation rate”. Moreover, the “cell growth of BC cells” value in assay [1] is “prevented cell growth at relatively low concentrations”. Further, the “impact on tumor establishment or growth” value in assay [2] (5 mg/kg/daily) was “no significant impact on tumour growth”.
On to `CCCCc1oc2ccccc2c1C(=O)c1cc(I)c(OCCN(CC)CC)c(I)c1` [amiodarone], for which the “proliferation rate of the BC cells” value in assay [1] (RT112 cells) is listed as “significantly decreased the proliferation rate”. The “cell growth of BC cells” value in assay [1] is listed as “prevented cell growth at relatively low concentrations”.
`CCN(CC)Cc1cc(Nc2ccnc3cc(Cl)ccc23)ccc1O` [amodiaquine]: the “proliferation rate of the BC cells” value in assay [1] (RT112 cells) is listed as “significantly decreased the proliferation rate”. Moreover, in assay [1], the “cell growth of BC cells” value is on record as “prevented cell growth at relatively low concentrations”.
On to `C=C1C[C@@H]2[C@H](CC[C@]3(C)C(=O)CC[C@@H]23)[C@@]2(C)C=CC(=O)C=C12` [exemestane], for which the “proliferation rate of the BC cells” value in assay [1] (setting [3]) was “significantly decreased the proliferation rate”. Moreover, the “cell growth of BC cells” value in assay [1] is “prevented cell growth at relatively low concentrations”. The “impact on tumor establishment or growth” value in assay [2] (30 mg/kg/every 3rd day) is given as “clear impact on tumor establishment or growth; also recorded: significantly decreased tumor establishment or growth”.
For the compound `COCCCC/C(=N\OCCN)c1ccc(C(F)(F)F)cc1` [fluvoxamine], the “proliferation rate of the BC cells” value in assay [1] (RT112 cells) is given as “significantly decreased the proliferation rate”. The “cell growth of BC cells” value in assay [1] is “prevented cell growth at relatively low concentrations”.
Regarding `COC(=O)C1=C(C)NC(C)=C(C(=O)OC(C)C)C1c1cccc2nonc12` (centres unmarked) [isradipine], the “proliferation rate of the BC cells” value in assay [1] (RT112 cells) was “significantly decreased the proliferation rate”. The “cell growth of BC cells” value in assay [1] is “prevented cell growth at relatively low concentrations”.
